# Data published in patent publication US4617184A, “99m Tc-1,2-dihydroxy-1,2-bis(dihydroxyphosphinyl)ethane complex for skeleton scanning” (priority 1984, dated 1986).
# Legend:
# [1] = Organ distribution of ^99m Tc-DHPE (freeze dried kit) in rats, i.v. tail vein; type: in vivo, Hooded strain rats; parameters: Dose per Organ: unit not given here
# Method: Twenty five milliliters of a sterile aqueous solution of 55.5 mg of DHPE were mixed with 12.5 mL of a freshly prepared sterile aqueous solution containing 0.1 mg of SnCl2 per milliliter and with 12.5 mL of a sterile aqueous solution of sodium acetate 10% W/V. Portions of 2 mL each of the resulting solution were transferred through a Millipore filter of 0.22 micron pore size into pharmaceutical vials. The vials were freeze dried for 24 hours and were sealed in vacuum. Four milliliters of saline solution of Na^+99m TcO4^- (20 millicuries Tc-99m) were added to each vial. The vial was vigorously shaken, and then allowed to stand for five minutes at normal ambient temperature.
# Two hundred fifty microliters of the above solution of the radiopharmaceutical ^99m Tc-DHPE were injected i.v. (intravenously) in the tail vein of each of six Hooded strain, closed colony, random breeding rats. The rats were sacrificed at the following time periods 1 hr, 2 hr, 4 hr, 6 hr, 12 hr, and 24 hrs. The organs of each rat were isolated and the distribution of Tc-99m determined by assay with a single channel analyzer equipped with a well type NaI(T1) scintillation detector.
# The experimental error in the distribution vs. time data for the ^99m Tc-DHPE complex was minimized by averaging six runs under identical conditions, always with the Hooded strain rats. The effect of organ geometry on radioactivity counting efficiency was taken into account. Corrections were also made so that, upon extrapolation back to time zero, the summation of activity in the organs was equal to the injected activity (i.e. by comparison to standards).
# [2] = Gamma camera bone imaging in anesthetized rabbit; type: in vivo
# Method: Two milliliters of a sterile saline solution of Na^+99m TcO4^- (IO millicuries Tc-99m) were added to a pharmaceutical vial containing 2 mL of a sterile aqueous solution containing 2.2 mg of DHPE, 50μg of SnCl2 and 50 mg of CH3 COONa. The vial was vigorously shaken, then allowed to stand for five minutes at room temperature. Paper chromatography of the solution was run according to the method outlined in Example 1 and only 2% unreacted pertechnetate was found.
# Bone imaging was carried out by intravenous injection of 0.5 milliliters of this solution into the ear vein of an anesthetized rabbit positioned under a gamma camera. […] As time passed the quality of the images improved. […] Less than 30% of the initial radioactivity in the blood was detected in the blood 30 minutes after injection.
# [3] = Distribution in rats of the complex prepared by electrochemical reduction; type: in vivo, Hooded strain rats; conditions: i.v. tail vein, electrochemically prepared complex
# Method: Four milliliters of a sterile aqueous solution containing 1.5 mg of DHPE, 20 mg of CH3 COONa and 10 mCi of Na^+99m TcO4^- were added to a sterile cell equipped with tin electrodes. An electrical charge of 5×10^-2 coulombs (20 sec×2.5 mA) was passed through to produce the ^99m Tc-DHPE complex. Paper chromatography of the solution was run according to the method outlined in Example 1. The determined radiochemical purity of the ^99m Tc-DHPE compound was 98%. The complex was assayed by intravenous injections into the tail veins of Hooded strain rats as in Example 1, the animals being sacrificed at 1, 2, 4, 6, 12, and 24 hours.
# [4] = Acute and chronic toxicity of DHPE in rodents; type: in vivo; conditions: injected doses 5 to 250 mg per kg of body weight
# Description: The amount of complexing agent required to be injected into a test animal or human patient for a satisfactory skeleton scintigraphy is three orders of magnitude smaller than the highest tested dose.
compound,measurement,setting,value
"^99m Tc-1,2-Dihydroxy-1,2-bis(dihydroxyphosphinyl)ethane Complex [^99m Tc-DHPE]",Dose per Organ,"[1]; ADRENALS, 1 hr",0.006 ± 0.006
same,Dose per Organ,"[1]; ADRENALS, 2 hr",0.007 ± 0.005
same,Dose per Organ,"[1]; ADRENALS, 4 hr",0.003 ± 0.001
same,Dose per Organ,"[1]; ADRENALS, 6 hr",0.003 ± 0.001
same,Dose per Organ,"[1]; ADRENALS, 12 hr",0.001 ± 0.000
same,Dose per Organ,"[1]; ADRENALS, 24 hr",0.001 ± 0.000
same,Dose per Organ,"[1]; BLOOD, 1 hr",0.742 ± 0.384
same,Dose per Organ,"[1]; BLOOD, 2 hr",0.895 ± 0.515
same,Dose per Organ,"[1]; BLOOD, 4 hr",0.643 ± 0.414
same,Dose per Organ,"[1]; BLOOD, 6 hr",0.322 ± 0.067
same,Dose per Organ,"[1]; BLOOD, 12 hr",0.312 ± 0.209
same,Dose per Organ,"[1]; BLOOD, 24 hr",0.104 ± 0.015
same,Dose per Organ,"[1]; BONE, 1 hr",44.426 ± 2.556
same,Dose per Organ,"[1]; BONE, 2 hr",45.722 ± 3.411
same,Dose per Organ,"[1]; BONE, 4 hr",53.447 ± 2.828
same,Dose per Organ,"[1]; BONE, 6 hr",47.673 ± 6.612
same,Dose per Organ,"[1]; BONE, 12 hr",42.362 ± 4.449
same,Dose per Organ,"[1]; BONE, 24 hr",43.317 ± 2.825
same,Dose per Organ,"[1]; FECES, 1 hr",0.034 ± 0.054
same,Dose per Organ,"[1]; FECES, 2 hr",0.053 ± 0.088
same,Dose per Organ,"[1]; FECES, 4 hr",0.394 ± 0.343
same,Dose per Organ,"[1]; FECES, 6 hr",0.570 ± 0.205
same,Dose per Organ,"[1]; FECES, 12 hr",0.848 ± 0.601
same,Dose per Organ,"[1]; FECES, 24 hr",3.149 ± 1.799
same,Dose per Organ,"[1]; HEART, 1 hr",0.022 ± 0.008
same,Dose per Organ,"[1]; HEART, 2 hr",0.026 ± 0.012
same,Dose per Organ,"[1]; HEART, 4 hr",0.018 ± 0.008
same,Dose per Organ,"[1]; HEART, 6 hr",0.015 ± 0.004
same,Dose per Organ,"[1]; HEART, 12 hr",0.011 ± 0.005
same,Dose per Organ,"[1]; HEART, 24 hr",0.006 ± 0.001
same,Dose per Organ,"[1]; KIDNEYS, 1 hr",1.523 ± 0.371
same,Dose per Organ,"[1]; KIDNEYS, 2 hr",1.782 ± 0.365
same,Dose per Organ,"[1]; KIDNEYS, 4 hr",1.441 ± 0.277
same,Dose per Organ,"[1]; KIDNEYS, 6 hr",2.716 ± 0.365
same,Dose per Organ,"[1]; KIDNEYS, 12 hr",3.018 ± 0.825
same,Dose per Organ,"[1]; KIDNEYS, 24 hr",1.187 ± 0.119
same,Dose per Organ,"[1]; LARGE INTESTINE, 1 hr",1.548 ± 1.380
same,Dose per Organ,"[1]; LARGE INTESTINE, 2 hr",2.210 ± 1.789
same,Dose per Organ,"[1]; LARGE INTESTINE, 4 hr",2.906 ± 3.009
same,Dose per Organ,"[1]; LARGE INTESTINE, 6 hr",3.209 ± 0.684
same,Dose per Organ,"[1]; LARGE INTESTINE, 12 hr",0.648 ± 0.615
same,Dose per Organ,"[1]; LARGE INTESTINE, 24 hr",0.415 ± 0.448
same,Dose per Organ,"[1]; LIVER, 1 hr",0.095 ± 0.018
same,Dose per Organ,"[1]; LIVER, 2 hr",0.184 ± 0.049
same,Dose per Organ,"[1]; LIVER, 4 hr",0.187 ± 0.032
same,Dose per Organ,"[1]; LIVER, 6 hr",0.168 ± 0.044
same,Dose per Organ,"[1]; LIVER, 12 hr",0.131 ± 0.022
same,Dose per Organ,"[1]; LIVER, 24 hr",0.134 ± 0.030
same,Dose per Organ,"[1]; LUNGS, 1 hr",0.104 ± 0.033
same,Dose per Organ,"[1]; LUNGS, 2 hr",0.149 ± 0.105
same,Dose per Organ,"[1]; LUNGS, 4 hr",0.121 ± 0.029
same,Dose per Organ,"[1]; LUNGS, 6 hr",0.032 ± 0.007
same,Dose per Organ,"[1]; LUNGS, 12 hr",0.022 ± 0.015
same,Dose per Organ,"[1]; LUNGS, 24 hr",0.044 ± 0.024
same,Dose per Organ,"[1]; MUSCLE, 1 hr",1.138 ± 0.511
same,Dose per Organ,"[1]; MUSCLE, 2 hr",2.371 ± 1.206
same,Dose per Organ,"[1]; MUSCLE, 4 hr",2.193 ± 0.974
same,Dose per Organ,"[1]; MUSCLE, 6 hr",4.216 ± 2.815
same,Dose per Organ,"[1]; MUSCLE, 12 hr",2.139 ± 0.389
same,Dose per Organ,"[1]; MUSCLE, 24 hr",2.699 ± 1.989
same,Dose per Organ,"[1]; SMALL INTESTINE, 1 hr",0.963 ± 0.868
same,Dose per Organ,"[1]; SMALL INTESTINE, 2 hr",1.963 ± 2.085
same,Dose per Organ,"[1]; SMALL INTESTINE, 4 hr",1.009 ± 1.243
same,Dose per Organ,"[1]; SMALL INTESTINE, 6 hr",0.495 ± 0.205
same,Dose per Organ,"[1]; SMALL INTESTINE, 12 hr",0.318 ± 0.113
same,Dose per Organ,"[1]; SMALL INTESTINE, 24 hr",0.091 ± 0.033
same,Dose per Organ,"[1]; SPLEEN, 1 hr",0.020 ± 0.007
same,Dose per Organ,"[1]; SPLEEN, 2 hr",0.026 ± 0.007
same,Dose per Organ,"[1]; SPLEEN, 4 hr",0.020 ± 0.003
same,Dose per Organ,"[1]; SPLEEN, 6 hr",0.022 ± 0.007
same,Dose per Organ,"[1]; SPLEEN, 12 hr",0.008 ± 0.002
same,Dose per Organ,"[1]; SPLEEN, 24 hr",0.010 ± 0.004
same,Dose per Organ,"[1]; STOMACH, 1 hr",0.288 ± 0.137
same,Dose per Organ,"[1]; STOMACH, 2 hr",0.388 ± 0.176
same,Dose per Organ,"[1]; STOMACH, 4 hr",0.226 ± 0.243
same,Dose per Organ,"[1]; STOMACH, 6 hr",0.152 ± 0.148
same,Dose per Organ,"[1]; STOMACH, 12 hr",0.082 ± 0.023
same,Dose per Organ,"[1]; STOMACH, 24 hr",0.040 ± 0.029
same,Dose per Organ,"[1]; URINE, 1 hr",28.584 ± 5.562
same,Dose per Organ,"[1]; URINE, 2 hr",28.295 ± 1.829
same,Dose per Organ,"[1]; URINE, 4 hr",31.469 ± 4.991
same,Dose per Organ,"[1]; URINE, 6 hr",24.033 ± 5.995
same,Dose per Organ,"[1]; URINE, 12 hr",6.519
same,Dose per Organ,"[1]; URINE, 24 hr",8.600
same,excretion,"[1]; rats, i.v.",mainly via the kidneys to urine
same,removal from the blood,"[1]; rats, i.v.",fast removal
same,concentration to the skeleton,"[1]; rats, i.v., in comparison to other organs or tissues",fast and high concentration to the skeleton
same,initial radioactivity in the blood detected in the blood,[2]; 30 minutes after injection,Less than 30%
same,removal of the radiopharmaceutical from the blood,[2]; i.v. ear vein,fast removal
same,quality of skeleton images,"[2]; i.v. ear vein, 1 to 2.5 hrs post injection",Excellent images of the skeleton
same,skeleton visualization,"[2]; i.v. ear vein, thirty minutes post injection",clearly visualized
same,excretion,[3],mainly to the urine
same,skeleton uptake,[3],rapid skeleton uptake
same,uptake by other organs,[3]; effect on bone specificity,did not detract significantly from bone specificity
"O=P(O)(O)C(O)C(O)P(=O)(O)O (centres unmarked) [DHPE, 1,2-dihydroxy-1,2-bis(dihydroxyphosphinyl)ethane]",deaths or adverse effects (acute and chronic toxicity),[4],no deaths or adverse effects
